This test has as its system IL-12. Briefly: Human in vitro assay: inhibition of IL-12 production in IFNγ/LPS- or IFNγ/SAC-stimulated human PBMC or THP-1 cells (ELISA). Type of test: cell-based. The note with it: read-out: IC50 Range (representative in vitro IC50 data). In short, it runs like this:
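PBMC (5×10^5 cells/well) primed with IFNγ 30 U/mL for 22 h then LPS 1 μg/mL, or IFNγ 100 U/mL then SAC 0.01%; THP-1 primed with IFNγ 100 U/mL for 22 h then SAC 0.025%, with compound in 0.25% DMSO. Supernatant IL-12 p70/p40 measured by sandwich ELISA after 18 h; IC50 derived; viability by MTS.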
For orientation: ELISA stands for enzyme-linked immunosorbent assay.

Consider 32 compounds from patent US20060223996A1, “IL-12 modulatory compounds” (Synta Pharmaceuticals Corp., priority 2004, published 2006).

The structures appear in SMILES notation.

As usually defined, the IC50 is the midpoint of a concentration-inhibition curve. Turning to `O=C(Nc1ccc2[nH]c3c(c2c1)CCCC3)c1cc(OCCN2CCOC2=O)nc(N2CCOCC2)n1` [Compound 223, 2-Morpholin-4-yl-6-[2-(2-oxo-oxazolidin-3-yl)-ethoxy]-pyrimidine-4-carboxylic acid (6,7,8,9-tetrahydro-5H-carbazol-3-yl)-amide], the IC50 is < 1000 nM.
On to `COCCN(C)c1cc(C(=O)Nc2cc(C(C)(C)C)ccc2O)nc(N2CCOCC2)n1` [Compound 225, 6-[(2-Methoxy-ethyl)-methyl-amino]-2-morpholin-4-yl-pyrimidine-4-carboxylic acid (5-tert-butyl-2-hydroxy-phenyl)-amide], for which the half-maximal inhibitory concentration (IC50) is ≥ 1000 nM.
The figure for `COCCN(C)c1cc(C(=O)Nc2cccc(C#CC(C)(C)O)c2)nc(N2CCOCC2)n1` [Compound 226, 6-[(2-Methoxy-ethyl)-methyl-amino]-2-morpholin-4-yl-pyrimidine-4-carboxylic acid [3-(3-hydroxy-3-methyl-but-1-ynyl)-phenyl]-amide] is ≥ 1000 nM; for `COCCN(C)c1cc(C(=O)Nc2cc(-c3ccc(Cl)cc3)nn2C)nc(N2CCOCC2)n1` [Compound 227, 6-[(2-Methoxy-ethyl)-methyl-amino]-2-morpholin-4-yl-pyrimidine-4-carboxylic acid [5-(4-chloro-phenyl)-2-methyl-2H-pyrazol-3-yl]-amide] it is ≥ 1000 nM; for `COCCN(C)c1cc(C(=O)Nc2cc(C(C)(C)C)on2)nc(N2CCOCC2)n1` [Compound 228, 6-[(2-Methoxy-ethyl)-methyl-amino]-2-morpholin-4-yl-pyrimidine-4-carboxylic acid (5-tert-butyl-isoxazol-3-yl)-amide] it is ≥ 1000 nM.
The figure for `COCCN(C)c1cc(C(=O)Nc2ccc(C(C)C)c(C)c2)nc(N2CCOCC2)n1` [Compound 229, 6-[(2-Methoxy-ethyl)-methyl-amino]-2-morpholin-4-yl-pyrimidine-4-carboxylic acid (4-isopropyl-3-methyl-phenyl)-amide] is ≥ 1000 nM; for `COCCN(C)c1cc(C(=O)Nc2ccc(Br)c(C)c2)nc(N2CCOCC2)n1` [Compound 230, 6-[(2-Methoxy-ethyl)-methyl-amino]-2-morpholin-4-yl-pyrimidine-4-carboxylic acid (4-bromo-3-methyl-phenyl)-amide] it is ≥ 1000 nM.
With `COCCN(C)c1cc(C(=O)Nc2cccc(S(C)(=O)=O)c2)nc(N2CCOCC2)n1` [Compound 231, 6-[(2-Methoxy-ethyl)-methyl-amino]-2-morpholin-4-yl-pyrimidine-4-carboxylic acid (3-methanesulfonyl-phenyl)-amide] the figure was ≥ 1000 nM.
As to `COCCN(C)c1cc(C(=O)Nc2cccc(C(=O)c3ccccc3)c2)nc(N2CCOCC2)n1` [Compound 232, 6-[(2-Methoxy-ethyl)-methyl-amino]-2-morpholin-4-yl-pyrimidine-4-carboxylic acid (3-benzoyl-phenyl)-amide], the 50% inhibitory concentration (IC50) was ≥ 1000 nM.
For the compound `COCCN(C)c1cc(C(=O)NCCc2ccc(C)cc2)nc(N2CCOCC2)n1` [Compound 233, 6-[(2-Methoxy-ethyl)-methyl-amino]-2-morpholin-4-yl-pyrimidine-4-carboxylic acid (2-p-tolyl-ethyl)-amide], the IC50 is ≥ 1000 nM.
`COCCN(C)c1cc(C(=O)Nc2ccc(N3CCOCC3)c(C(N)=O)c2)nc(N2CCOCC2)n1` [Compound 234, 6-[(2-Methoxy-ethyl)-methyl-amino]-2-morpholin-4-yl-pyrimidine-4-carboxylic acid (3-carbamoyl-4-morpholin-4-yl-phenyl)-amide]: the IC50 was ≥ 1000 nM.
With `COCCN(C)c1cc(C(=O)Nc2cccc(-c3nn(C)cc3Br)c2)nc(N2CCOCC2)n1` [Compound 235, 6-[(2-Methoxy-ethyl)-methyl-amino]-2-morpholin-4-yl-pyrimidine-4-carboxylic acid [3-(4-bromo-1-methyl-1H-pyrazol-3-yl)-phenyl]-amide], the IC50 is ≥ 1000 nM.
With `COCCN(C)c1cc(C(=O)Nc2nnc(C(C)(C)C)s2)nc(N2CCOCC2)n1` [Compound 236, 6-[(2-Methoxy-ethyl)-methyl-amino]-2-morpholin-4-yl-pyrimidine-4-carboxylic acid (5-tert-butyl-[1,3,4]thiadiazol-2-yl)-amide] the figure was ≥ 1000 nM; with `COCCN(C)c1cc(C(=O)Nc2cc(C)on2)nc(N2CCOCC2)n1` [Compound 237, 6-[(2-Methoxy-ethyl)-methyl-amino]-2-morpholin-4-yl-pyrimidine-4-carboxylic acid (5-methyl-isoxazol-3-yl)-amide], ≥ 1000 nM.
For `COCCN(C)c1cc(C(=O)Nc2cc(C)cc(C)n2)nc(N2CCOCC2)n1` [Compound 238, 6-[(2-Methoxy-ethyl)-methyl-amino]-2-morpholin-4-yl-pyrimidine-4-carboxylic acid (4,6-dimethyl-pyridin-2-yl)-amide], the IC50 is ≥ 1000 nM.
With `COCCN(C)c1cc(C(=O)Nc2cc(C)ns2)nc(N2CCOCC2)n1` [Compound 239, 6-[(2-Methoxy-ethyl)-methyl-amino]-2-morpholin-4-yl-pyrimidine-4-carboxylic acid (3-methyl-isothiazol-5-yl)-amide] the figure was ≥ 1000 nM; with `COCCN(C)c1cc(C(=O)Nc2nc(C)cc(C)n2)nc(N2CCOCC2)n1` [Compound 240, 6-[(2-Methoxy-ethyl)-methyl-amino]-2-morpholin-4-yl-pyrimidine-4-carboxylic acid (4,6-dimethyl-pyrimidin-2-yl)-amide], ≥ 1000 nM.
With `COCCN(C)c1cc(C(=O)Nc2ccc3nc(C)c(C)nc3c2)nc(N2CCOCC2)n1` [Compound 241, 6-[(2-Methoxy-ethyl)-methyl-amino]-2-morpholin-4-yl-pyrimidine-4-carboxylic acid (2,3-dimethyl-quinoxalin-6-yl)-amide] the figure was ≥ 1000 nM; with `COCCN(C)c1cc(C(=O)Nc2cccc(-c3cnc4ccccc4n3)c2)nc(N2CCOCC2)n1` [Compound 242, 6-[(2-Methoxy-ethyl)-methyl-amino]-2-morpholin-4-yl-pyrimidine-4-carboxylic acid (3-quinoxalin-2-yl-phenyl)-amide], ≥ 1000 nM; with `COCCN(C)c1cc(C(=O)Nc2ccc3c(C(F)(F)F)cc(C(F)(F)F)nc3n2)nc(N2CCOCC2)n1` [Compound 243, 6-[(2-Methoxy-ethyl)-methyl-amino]-2-morpholin-4-yl-pyrimidine-4-carboxylic acid (5,7-bis-trifluoromethyl-[1,8]naphthyridin-2-yl)-amide], ≥ 1000 nM.
With `COCCN(C)c1cc(C(=O)Nc2cccc(OC(F)(F)F)c2)nc(N2CCOCC2)n1` [Compound 244, 6-[(2-Methoxy-ethyl)-methyl-amino]-2-morpholin-4-yl-pyrimidine-4-carboxylic acid (3-trifluoromethoxy-phenyl)-amide] the figure was ≥ 1000 nM.
For `COCCN(C)c1cc(C(=O)Nc2cccc(-c3csc(C)n3)c2)nc(N2CCOCC2)n1` [Compound 245, 6-[(2-Methoxy-ethyl)-methyl-amino]-2-morpholin-4-yl-pyrimidine-4-carboxylic acid [3-(2-methyl-thiazol-4-yl)-phenyl]-amide], the IC50 was < 1000 nM.
The figure for `Cc1[nH]c2ccc(NC(=O)c3cc(OCCN4CCNCC4)nc(N4CCOCC4)n3)cc2c1C` [Compound 246, N-(2,3-dimethyl-1H-indol-5-yl)-2-morpholino-6-(2-(piperazin-1-yl)ethoxy)pyrimidine-4-carboxamide] is < 1000 nM; for `CNc1cc(C(=O)Nc2ccc3[nH]c(C)c(C)c3c2)nc(N2CCOCC2)n1` [Compound 247, N-(2,3-dimethyl-1H-indol-5-yl)-6-(methylamino)-2-morpholino-pyrimidine-4-carboxamide] it is < 1000 nM.
With `Cc1[nH]c2ccc(NC(=O)c3cc(N(C)C)nc(N4CCOCC4)n3)cc2c1C` [Compound 248, N-(2,3-dimethyl-1H-indol-5-yl)-6-(dimethylamino)-2-morpholino-pyrimidine-4-carboxamide], the concentration for half-maximal inhibition (IC50) is < 1000 nM.
The figure for `Cc1[nH]c2ccc(NC(=O)c3cc(OCCS(C)(=O)=O)nc(N4CCOCC4)n3)cc2c1C` [Compound 249, N-(2,3-dimethyl-1H-indol-5-yl)-6-(2-(methylsulfonyl)ethoxy)-2-morpholinopyrimidine-4-carboxamide] is ≥ 1000 nM.
The figure for `Cc1[nH]c2ccc(NC(=O)c3cc(OCCC#N)nc(N4CCOCC4)n3)cc2c1C` [Compound 250, 6-(2-cyanoethoxy)-N-(2,3-dimethyl-1H-indol-5-yl)-2-morpholinopyrimidine-4-carboxamide] is < 1000 nM.
The figure for `Cc1[nH]c2ccc(NC(=O)c3cc(N4CCN(C)CC4)nc(N4CCOCC4)n3)cc2c1C` [Compound 251, N-(2,3-dimethyl-1H-indol-5-yl)-6-(4-methylpiperazin-1-yl)-2-morpholinopyrimidine-4-carboxamide] is < 1000 nM.
In the case of `COCCNc1cc(C(=O)Nc2ccc3[nH]c(C)c(C)c3c2)nc(N2CCOCC2)n1` [Compound 252, N-(2,3-dimethyl-1H-indol-5-yl)-6-(2-methoxyethylamino)-2-morpholinopyrimidine-4-carboxamide], the concentration for half-maximal inhibition (IC50) is < 1000 nM.
The figure for `Cc1cc(C(=O)Nc2ccc3[nH]c(C)c(C)c3c2)nc(N2CCOCC2)n1` [Compound 253, N-(2,3-dimethyl-1H-indol-5-yl)-6-methyl-2-morpholinopyrimidine-4-carboxamide] is < 1000 nM.
The figure for `Cc1[nH]c2ccc(NC(=O)c3cc(O)nc(N4CCOCC4)n3)cc2c1C` [Compound 254, N-(2,3-dimethyl-1H-indol-5-yl)-6-hydroxy-2-morpholinopyrimidine-4-carboxamide] is < 1000 nM; for `Cc1[nH]c2ccc(NC(=O)c3cc(Nc4ccc5[nH]c(C)c(C)c5c4)nc(N4CCOCC4)n3)cc2c1C` [Compound 255, N-(2,3-dimethyl-1H-indol-5-yl)-6-(2,3-dimethyl-1H-indol-5-ylamino)-2-morpholinopyrimidine-4-carboxamide] it is < 1000 nM.
